Assay results as given in US11485987B2, “Methods for inducing bioorthogonal reactivity” (University of Delaware, priority 2015, dated 2022).
Positions count from the first letter of the chain named.

How the values were obtained:
F41A APEX2 = molecular target: T1, F41A APEX2 (Glycine max, UniProt Q43758, A134P/E112K/K14D/W41A); assay: Oxidation of DHT by F41A APEX2, UV-Vis initial rates and kinetic parameters; type: biochemical; settings: for Initial rate of oxidation of DHT by F41A APEX2 + SOD: SOD 1 μM, PBS, 100 μM EDTA, first 100 s
T1 sequence (Q43758 1-250 A134P/E112K/K14D/W41A): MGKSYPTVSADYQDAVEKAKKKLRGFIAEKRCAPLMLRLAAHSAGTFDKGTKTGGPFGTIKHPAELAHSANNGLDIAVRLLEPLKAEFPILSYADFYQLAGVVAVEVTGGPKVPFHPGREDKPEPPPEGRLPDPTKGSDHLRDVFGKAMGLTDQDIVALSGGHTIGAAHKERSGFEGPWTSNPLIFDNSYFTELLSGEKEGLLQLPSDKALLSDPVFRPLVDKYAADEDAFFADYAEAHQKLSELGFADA
Protocol: (§1) UV-Vis and fluorescence measurements were conducted in quartz cuvettes. All reactions were conducted in phosphate buffered saline (PBS) containing 100 μM EDTA with a pH=7.4. The PBS was prepared by adding 25 mM phosphate salts (Na2HPO4 and NaH2PO4), 100 mM NaCl, 100 μM EDTA to DI water. EDTA was added to quench free metals that can oxidize DHT. The buffer was pH adjusted to 7.4 using 1 mM HCl and 1 mM NaOH. UV experiments were stirred at 25° C. in a temperature-controlled cuvette holder of the spectrophotometer. Solutions of 15 or 16 were prepared from methanol stock solutions.
(§2) SOD (1 μM) was added to PBS containing 100 μM EDTA. 15 or 16 (60 μM) was added from methanol stock solutions. After 10s, APEX2 (SEQ ID NO:1) or F41A APEX2 (275 nM) was dosed in and oxidation was monitored at 325 nm for 15 and 285 nm for 16 at 60s intervals.
(§3) The initial rate of oxidation was calculated from the first 100 seconds after APEX2 (SEQ ID NO:1) or F41A APEX2 was added ([…]). In the assays where SOD was added, SOD (1 μM) was added to PBS containing 100 μM EDTA and 15 or 16 was dosed in. 10 seconds later, APEX2 (SEQ ID NO:1) or F41A APEX2 ([…]) was added and the rate of oxidation was calculated from the first 100 seconds after APEX2 (SEQ ID NO:1) or F41A APEX2 ([…]) addition. The initial rate of oxidation was adjusted to background oxidation of DHT in PBS with 100 μM EDTA. Kinetic parameters (Table 2) were determined using GraphPad's Prism 6 software from the data presented below (Table 3-4).

APEX2 (SEQ ID NO:1) = molecular target: T2, APEX2 (SEQ ID NO:1) (Glycine max, UniProt Q43758, A134P/E112K/K14D/W41F); assay: Oxidation of DHT by APEX2, UV-Vis initial rates and kinetic parameters; type: biochemical; settings: PBS, 100 μM EDTA, first 100 s; for Initial rate of oxidation of DHT by APEX2 (SEQ ID NO: 1) + SOD: SOD 1 μM
T2 sequence (Q43758 1-250 A134P/E112K/K14D/W41F): T1 sequence (Q43758 1-250 A134P/E112K/K14D/W41A) with A41F
Protocol: as §1
15 or 16 (60 μM) from methanol stock solutions was added to PBS containing 100 μM EDTA. After 10s, APEX2 (SEQ ID NO:1) (275 nM) was dosed in and oxidation was monitored at 325 nm for 15 and 285 nm for 16 at 60s intervals (FIG. 10B-C).
16 (15 μM) DHT from methanol stock solutions was added to PBS containing 100 μM EDTA. After 10s, APEX2 (SEQ ID NO:1) (275 nM) or HRP (15 nM) was dosed in and oxidation was monitored at 285 nm at 10s intervals (FIG. 10D)
as §2, §3

[1] = NIR photocatalytic oxidation/Diels-Alder/payload release (methylene blue, 660 nm LED)
Protocol: Encouraged by calculation, the inventors synthesized the compound 7, where p-nitrophenol serves as a model payload that can be readily monitored by UV and NMR (FIG. 7, panel A). To study the Diels-Alder/elimination sequence […], the inventors chose to oxidize 7 with Dess-Martin periodinane—a reagent that instantaneously oxidizes dihydrotetrazines to tetrazines. […] Upon LED irradiation (660 nm, 9.1 mW/cm^2) of 7 (28 μM) in MeOH in the presence of catalytic methylene blue (7 μM), complete oxidation/Diels-Alder/payload release within 15 minutes was observed (FIG. 7, panel B). In this photocatalytic reaction, aliquots by ESI-MS were analyzed, and intermediates 8 and 9 were not detected.
[…]. […] The reaction of 12 to produce 13 and 14 could also be promoted by irradiating a solution of 12 in 60% H2O/MeOH for 30 min with a 660 nm LED light source in the presence of catalytic amounts of methylene blue with monitoring by UV-Vis. The complete conversion to product 13 could be observed by UV-vis within 30 minutes.

[2] = Tetrazine hydrolytic stability in PBS; type: physicochemical; settings: 800 μM, PBS buffer, 25° C.
Description: A challenge to the development of catalytic methods for turning on the tetrazine ligation was the identification of a DHTz/Tz pair that would be stable in both oxidation states (FIG. 1, panel B). For most redox couples, either the DHTz is too readily oxidized in air (e.g., 1), or the Tz is too reactive toward water and other nucleophiles (e.g., 2). The inventors show here that the dipyridyl DHTz/Tz pair (3/4) has good stability in both states (FIG. 1, panel C). Dihydrotetrazines 3 are highly resistant toward background oxidation in organic solvents, and a number of derivatives have been synthesized and shown stable even to silica gel chromatography. […] Aqueous solutions of 3a were handled in glassware that had been first rinsed with 2.0 mM EDTA in PBS to remove adventitious metal impurities. After standing in the dark at 25° C. in PBS buffer, a solution of 3a was monitored by UV-vis and shown to retain 99 and 96% of the DHTz oxidation state over 30 min and 2.5 hours respectively. […] In PBS containing 10% mouse serum, 90% of 3a was retained in the DHTz oxidation state after 1 h. […]
Solutions (1 mL) containing 4a (800 μM) in PBS buffer were prepared in cuvettes from stock solutions. Tetrazine concentration was measured by recording the absorbance at 525 nm every 20 minutes while holding the cuvette at either 25 for 24 hours.

## CCCCNC(=O)C1=NNC(c2ccccn2)=NN1 [compound 16]
F41A APEX2; DHT 5 μM
  Initial rate of oxidation of DHT by F41A APEX2 + SOD: 0.334 +/− 0.010 ×10^−8 M/s
F41A APEX2; DHT 10 μM
  Initial rate of oxidation of DHT by F41A APEX2 + SOD: 0.642 +/− 0.035 ×10^−8 M/s
F41A APEX2; DHT 15 μM
  Initial rate of oxidation of DHT by F41A APEX2 + SOD: 1.124 +/− 0.034 ×10^−8 M/s
F41A APEX2; DHT 20 μM
  Initial rate of oxidation of DHT by F41A APEX2 + SOD: 2.132 +/− 0.035 ×10^−8 M/s
F41A APEX2; DHT 25 μM
  Initial rate of oxidation of DHT by F41A APEX2 + SOD: 2.568 +/− 0.131 ×10^−8 M/s
F41A APEX2; DHT 30 μM
  Initial rate of oxidation of DHT by F41A APEX2 + SOD: 2.129 +/− 0.076 ×10^−8 M/s
F41A APEX2; DHT 35 μM
  Initial rate of oxidation of DHT by F41A APEX2 + SOD: 3.078 +/− 0.025 ×10^−8 M/s
F41A APEX2; DHT 40 μM
  Initial rate of oxidation of DHT by F41A APEX2 + SOD: 2.964 +/− 0.011 ×10^−8 M/s
F41A APEX2; DHT 50 μM
  Initial rate of oxidation of DHT by F41A APEX2 + SOD: 3.867 +/− 0.049 ×10^−8 M/s
F41A APEX2; DHT 55 μM
  Initial rate of oxidation of DHT by F41A APEX2 + SOD: 3.709 +/− 0.336 ×10^−8 M/s
F41A APEX2; DHT 75 μM
  Initial rate of oxidation of DHT by F41A APEX2 + SOD: 4.549 +/− 0.150 ×10^−8 M/s
F41A APEX2; DHT 85 μM
  Initial rate of oxidation of DHT by F41A APEX2 + SOD: 5.098 +/− 0.571 ×10^−8 M/s
F41A APEX2; F41A APEX2 mutant with SOD
  factor of increase of rate of catalysis versus APEX2 (SEQ ID NO:1): 5
APEX2 (SEQ ID NO:1); DHT 4 μM
  Initial rate of oxidation of DHT by APEX2 (SEQ ID NO: 1) + SOD: 0.429 +/− 0.022 ×10^−8 M/s
APEX2 (SEQ ID NO:1); DHT 5 μM
  Initial rate of oxidation of DHT by APEX2 (SEQ ID NO: 1): 0.319 +/− 0.056 ×10^−8 M/s
APEX2 (SEQ ID NO:1); DHT 10 μM
  Initial rate of oxidation of DHT by APEX2 (SEQ ID NO: 1): 0.673 +/− 0.002 ×10^−8 M/s
  Initial rate of oxidation of DHT by APEX2 (SEQ ID NO: 1) + SOD: 1.011 +/− 0.170 ×10^−8 M/s
APEX2 (SEQ ID NO:1); DHT 15 μM
  Initial rate of oxidation of DHT by APEX2 (SEQ ID NO: 1): 0.810 +/− 0.081 ×10^−8 M/s
  Initial rate of oxidation of DHT by APEX2 (SEQ ID NO: 1) + SOD: 1.662 +/− 0.004 ×10^−8 M/s
APEX2 (SEQ ID NO:1); DHT 20 μM
  Initial rate of oxidation of DHT by APEX2 (SEQ ID NO: 1): 1.169 +/− 0.095 ×10^−8 M/s
APEX2 (SEQ ID NO:1); DHT 30 μM
  Initial rate of oxidation of DHT by APEX2 (SEQ ID NO: 1): 1.131 +/− 0.182 ×10^−8 M/s
  Initial rate of oxidation of DHT by APEX2 (SEQ ID NO: 1) + SOD: 2.073 +/− 0.046 ×10^−8 M/s
APEX2 (SEQ ID NO:1); DHT 40 μM
  Initial rate of oxidation of DHT by APEX2 (SEQ ID NO: 1): 1.427 +/− 0.265 ×10^−8 M/s
  Initial rate of oxidation of DHT by APEX2 (SEQ ID NO: 1) + SOD: 2.379 +/− 0.350 ×10^−8 M/s
APEX2 (SEQ ID NO:1); DHT 45 μM
  Initial rate of oxidation of DHT by APEX2 (SEQ ID NO: 1): 1.376 +/− 0.071 ×10^−8 M/s
  Initial rate of oxidation of DHT by APEX2 (SEQ ID NO: 1) + SOD: 2.234 +/− 0.088 ×10^−8 M/s
APEX2 (SEQ ID NO:1); DHT 50 μM
  Initial rate of oxidation of DHT by APEX2 (SEQ ID NO: 1): 1.438 +/− 0.017 ×10^−8 M/s
  Initial rate of oxidation of DHT by APEX2 (SEQ ID NO: 1) + SOD: 2.149 +/− 0.009 ×10^−8 M/s
APEX2 (SEQ ID NO:1); DHT 55 μM
  Initial rate of oxidation of DHT by APEX2 (SEQ ID NO: 1) + SOD: 2.503 +/− 0.210 ×10^−8 M/s
APEX2 (SEQ ID NO:1); DHT 60 μM
  Initial rate of oxidation of DHT by APEX2 (SEQ ID NO: 1): 1.396 +/− 0.123 ×10^−8 M/s
  Initial rate of oxidation of DHT by APEX2 (SEQ ID NO: 1) + SOD: 2.376 +/− 0.450 ×10^−8 M/s
APEX2 (SEQ ID NO:1); DHT 70 μM
  Initial rate of oxidation of DHT by APEX2 (SEQ ID NO: 1) + SOD: 2.746 +/− 0.180 ×10^−8 M/s
APEX2 (SEQ ID NO:1); DHT 75 μM
  Initial rate of oxidation of DHT by APEX2 (SEQ ID NO: 1): 1.766 +/− 0.080 ×10^−8 M/s
APEX2 (SEQ ID NO:1); DHT 85 μM
  Initial rate of oxidation of DHT by APEX2 (SEQ ID NO: 1): 1.695 +/− 0.114 ×10^−8 M/s
APEX2 (SEQ ID NO:1); DHT 90 μM
  Initial rate of oxidation of DHT by APEX2 (SEQ ID NO: 1) + SOD: 2.491 +/− 0.032 ×10^−8 M/s

## COCCOCCOCCOCCOCCOCCOCCOCCOc1ccc(C2=NNC(c3ncccc3N(C)C(=O)/C=C/Oc3ccc(N(CCCl)CCCl)cc3)=NN2)nc1 [compound 12, (E)-N-(2-(6-(5-(2,5,8,11,14,17,20,23-octaoxapentacosan-25-yloxy)pyridin-2-yl)-1,4-dihydro-1,2,4,5-tetrazin-3-yl)pyridin-3-yl)-3-(4-(bis(2-chloroethyl)amino)phenoxy)-N-methylacrylamide]
[1]; 60% H2O/MeOH, 660 nm LED, catalytic methylene blue, UV-vis
  time to complete conversion to product 13: ≤ 30 min

## CCCCN(C(=O)/C=C/Oc1ccc([N+](=O)[O-])cc1)c1cccnc1C1=NNC(c2ccccn2)=NN1 [compound 7, (E)-N-butyl-3-(4-nitrophenoxy)-N-(2-(6-(pyridin-2-yl)-1,4-dihydro-1,2,4,5-tetrazin-3-yl)pyridin-3-yl)acrylamide]
[1]; 28 μM in MeOH, methylene blue 7 μM, LED 660 nm 9.1 mW/cm^2
  time to complete oxidation/Diels-Alder/payload release: ≤ 15 min

## O=C(O)CCC(=O)Nc1ccc(-c2nnc(-c3ccccn3)nn2)nc1 [4a, 4-oxo-4-((6-(6-(pyridin-2-yl)-1,2,4,5-tetrazin-3-yl)pyridin-3-yl)amino)butanoic Acid]
[2]; 2 h
  tetrazine fidelity: 98%
[2]; 24 h
  tetrazine fidelity: 83%
